Measured values as given in ChEMBL document CHEMBL4725295, “Synthesis and matched molecular pair analysis of covalent reversible inhibitors of the cysteine protease CPB” (Bioorg Med Chem Lett, 2020).

How the values were obtained:
[1] = Covalent reversible inhibition of Leishmania cysteine protease B using Z-Phe-Arg-7-amido-4-methylcoumarin as substrate incubated for 2 mins followed by substrate addition by fluorescence assay
[2] = target: T1, Cathepsin B (Homo sapiens, UniProt P07858); experiment: Inhibition of human cathepsin B
[3] = target: T1, Cathepsin B; experiment: Inhibition of human cathepsin B relative to control
[4] = system: Leishmania; experiment: Covalent reversible inhibition of Leishmania cysteine protease B using Z-Phe-Arg-7-amido-4-methylcoumarin as substrate incubated for 2 mins followed by substrate addition by fluorescence assay relative to control; set-up: concentration or dose not given beside the values

SMILES	Ki [1]	pKi [1]	Ki [2]	inhibition (INH) [3]	inhibition [4]
Cc1ccc([C@@H](N[C@@H](Cc2ccccc2)C(=O)NC2(C#N)CC2)C(F)(F)F)cc1	1.5 µM	5.8	> 10 µM	92%	–
Cc1ccc([C@H](N[C@H](Cc2ccccc2)C(=O)NC2(C#N)CC2)C(F)(F)F)cc1	> 10 µM	< 5	–	–	86%
N#CC1(NC(=O)[C@H](Cc2ccccc2)N[C@H](c2ccccc2)C(F)(F)F)CC1	1.41 µM	5.85	–	–	–
N#CC1(NC(=O)[C@@H](Cc2ccccc2)N[C@H](c2ccccc2)C(F)(F)F)CC1	7.65 µM	5.11	–	–	–
COc1ccc([C@@H](N[C@@H](Cc2ccccc2)C(=O)NC2(C#N)CC2)C(F)(F)F)cc1	> 10 µM	< 5	–	–	70%
N#CC1(NC(=O)[C@H](Cc2ccccc2)N[C@H](c2ccc(Br)cc2)C(F)(F)F)CC1	0.595 µM	6.23	–	–	–
COc1ccc([C@@H](N[C@H](Cc2ccccc2)C(=O)NC2(C#N)CC2)C(F)(F)F)cc1	> 10 µM	< 5	–	–	95%
N#CC1(NC(=O)[C@H](Cc2ccccc2)N[C@@H](c2ccc(Br)cc2)C(F)(F)F)CC1	0.151 µM	6.82	> 10 µM	> 95%	–
Cc1ccc([C@@H](N[C@H](Cc2ccccc2)C(=O)NC2(C#N)CC2)C(F)(F)F)cc1	> 10 µM	< 5	–	–	88%
N#CC1(NC(=O)[C@@H](Cc2ccccc2)N[C@H](c2ccc(Br)cc2)C(F)(F)F)CC1	0.795 µM	6.1	> 10 µM	> 95%	–
COc1ccc([C@H](N[C@@H](Cc2ccccc2)C(=O)NC2(C#N)CC2)C(F)(F)F)cc1	3.23 µM	5.5	–	–	–
Cc1ccc([C@H](N[C@@H](Cc2ccccc2)C(=O)NC2(C#N)CC2)C(F)(F)F)cc1	4.07 µM	5.4	–	–	–
N#CC1(NC(=O)[C@@H](Cc2ccccc2)N[C@@H](c2ccc(Br)cc2)C(F)(F)F)CC1	> 10 µM	< 5	–	–	–
N#CC1(NC(=O)[C@H](Cc2ccccc2)N[C@@H](c2ccccc2)C(F)(F)F)CC1	1.7 µM	5.77	> 10 µM	74.5%	–
N#CC1(NC(=O)[C@@H](Cc2ccccc2)N[C@@H](c2ccccc2)C(F)(F)F)CC1	4.4 µM	5.37	–	–	–
COc1ccc([C@H](N[C@H](Cc2ccccc2)C(=O)NC2(C#N)CC2)C(F)(F)F)cc1	> 10 µM	< 5	–	–	95%
